pIC50: −log10 of the molar value. Where two headings read alike, the source gives them in different places.
Key:
SHP2^E76A protein = SHP2^E76A protein (Homo sapiens (Human), UniProt Q06124, E76A); test: SHP2 enzyme activity inhibition experiment; format: biochemical
Outline: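 Compounds tested at 10 concentrations in 3-fold serial dilution. IC50 from a four-parameter Hill-slope nonlinear fit of enzyme activity versus concentration.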

MOLM-13 cells = test: MOLM-13 cell proliferation experiment; format: cell-based; conditions: Homo sapiens
Experimental: After 3 days, 5 µL of CellTiter-Glo reagent (Promega, ZG7572) was added to each well, and the plates were kept at room temperature in the dark for 10 minutes. The […] was detected by Spectra max i3 (Molecular Devices). The relative growth rate of the treated cells was compared with that of DMSO control.

[1] = system: phosphorylation level of intracellular protein kinase (ERK) in MOLM13 cells; test: Phosphorylated protein kinase (p-ERK) cell experiment (AlphaLISA); format: cell-based; conditions: Homo sapiens, MOLM-13, MOLM13 cells
[2] = SHP2 enzyme activity, Tables 1.1 and 1.2, read-out: IC50
[3] = Table 4, read-out: SHP2 enzyme activity IC50
[4] = MOLM-13, read-out: MOLM-13 cell proliferation IC50
[5] = MOLM-13, 72 h, MOLM-13 cell proliferation, 3 days, Tables 3.1 and 3.2, read-out: IC50
[6] = p-ERK, 2 hours of cell treatment, Tables 2.1 and 2.2, read-out: IC50

Sequence of SHP2^E76A protein (Q06124 whole entry E76A): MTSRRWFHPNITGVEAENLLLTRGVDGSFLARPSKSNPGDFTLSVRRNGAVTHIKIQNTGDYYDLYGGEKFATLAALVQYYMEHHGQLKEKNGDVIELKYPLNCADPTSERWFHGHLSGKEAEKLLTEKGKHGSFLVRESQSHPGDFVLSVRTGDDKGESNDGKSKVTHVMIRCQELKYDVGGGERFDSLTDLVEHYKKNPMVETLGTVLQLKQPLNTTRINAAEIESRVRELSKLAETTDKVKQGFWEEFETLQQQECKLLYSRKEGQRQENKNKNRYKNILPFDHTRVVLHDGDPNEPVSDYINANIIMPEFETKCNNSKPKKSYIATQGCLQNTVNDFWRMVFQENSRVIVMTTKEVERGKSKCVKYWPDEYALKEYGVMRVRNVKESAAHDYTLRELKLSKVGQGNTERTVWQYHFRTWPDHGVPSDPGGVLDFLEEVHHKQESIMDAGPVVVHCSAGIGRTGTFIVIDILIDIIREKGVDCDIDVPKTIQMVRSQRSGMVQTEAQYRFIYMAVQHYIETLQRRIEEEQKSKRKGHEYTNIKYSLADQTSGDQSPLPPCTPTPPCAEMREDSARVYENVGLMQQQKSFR

Structure (SMILES) | pIC50 (SHP2^E76A protein; [2]) | pIC50 (SHP2^E76A protein; [3]) | pIC50 (MOLM-13 cells; [4]) | pIC50 ([1]; Table 4, read-out: p-ERK IC50) | pIC50 (MOLM-13 cells; [5]) | pIC50 [1, 6]
C[C@@H]1OCC2(CCN(c3ncc(Sc4ccnc(Cl)c4Cl)c4nncn34)CC2)[C@@H]1N [(3S,4S)-8-(8-((2,3-dichloropyridin-4-yl)thio)-[1,2,4]triazolo[4,3-c]pyrimidin-5-yl)-3-methyl-2-oxa-8-azaspiro[4.5]decan-4-amine] | > 7.00 | 8.30 | 6.88 | 6.79 |  | 
N[C@@H]1CCCC12CCN(c1ncc(Sc3ccnc(F)c3Cl)c3nccn13)CC2 [(R)-8-(8-((3-chloro-2-fluoropyridin-4-yl)thio)imidazo[1,2-c]pyrimidin-5-yl)-8-azaspiro[4.5]decan-1-amine] | > 7.00 |  |  |  | 6.00 to 7.00 | 6.00 to 7.00
N[C@@H]1CCCC12CCN(c1ncc(Sc3cccc4ccccc34)c3nccn13)CC2 [(R)-8-(8-(naphthalen-1-ylthio)imidazo[1,2-c]pyrimidin-5-yl)-8-azaspiro[4.5]decan-1-amine] | > 7.00 | 7.55 | 6.82 | 6.31 | 6.00 to 7.00 | 6.00 to 7.00
Nc1cc(Sc2cnc(N3CCC4(CC3)CC(F)(F)C[C@H]4N)n3ccnc23)c(Cl)c(Cl)n1 [(R)-8-(8-((6-amino-2,3-dichloropyridin-4-yl)thio)imidazo[1,2-c]pyrimidin-5-yl)-3,3-difluoro-8-azaspiro[4.5]decan-1-amine] | > 7.00 | 7.46 | 6.82 | 7.21 | 6.00 to 7.00 | > 7.00
C[C@@H]1OCC2(CCN(c3ncc(Sc4cc(N)nc(Cl)c4Cl)c4nccn34)CC2)[C@@H]1N [(3S,4S)-8-(8-((6-amino-2,3-dichloropyridin-4-yl)thio)imidazo[1,2-c]pyrimidin-5-yl)-3-methyl-2-oxa-8-azaspiro[4.5]decan-4-amine] | > 7.00 | 8.00 | 7.30 | 7.33 | > 7.00 | > 7.00
Nc1nccc(Sc2cnc(N3CCC4(CCC[C@H]4N)CC3)n3ncnc23)c1Cl [(R)-8-(8-((2-amino-3-chloropyridin-4-yl)thio)-[1,2,4]triazolo[1,5-c]pyrimidin-5-yl)-8-azaspiro[4.5]decan-1-amine] | 6.00 to 7.00 |  |  |  | 6.00 to 7.00 | 5.00 to 6.00
N[C@@H]1CCCC12CCN(c1ncc(Sc3cccnc3C(F)(F)F)c3nncn13)CC2 [(R)-8-(8-((2-(trifluoromethyl)pyridin-3-yl)thio)-[1,2,4]triazolo[4,3-c]pyrimidin-5-yl)-8-azaspiro[4.5]decan-1-amine] | 6.00 to 7.00 |  |  |  | 6.00 to 7.00 | 5.00 to 6.00
Nc1nccc(Sc2cnc(N3CCC4(CC3)COC[C@H]4N)n3cnnc23)c1Cl [(S)-8-(8-((2-amino-3-chloropyridin-4-yl)thio)-[1,2,4]triazolo[4,3-c]pyrimidin-5-yl)-2-oxa-8-azaspiro[4.5]decan-4-amine] | 6.00 to 7.00 |  |  |  | 5.00 to 6.00 | 6.00 to 7.00
N[C@@H]1CCCC12CCN(c1ncc(Sc3ccccc3Cl)c3nncn13)CC2 [(R)-8-(8-((2-chlorophenyl)thio)-[1,2,4]triazolo[4,3-c]pyrimidin-5-yl)-8-azaspiro[4.5]decan-1-amine] | 6.00 to 7.00 | 6.85 | 6.31 | 6.26 | 6.00 to 7.00 | 6.00 to 7.00
Cc1nc(N)cc(Sc2cnc(N3CCC4(CC3)CO[C@@H](C)[C@H]4N)n3ccnc23)c1Cl [(3S,4S)-8-(8-((6-amino-3-chloro-2-methyl-pyridin-4-yl)thio)imidazo[1,2-c]pyrimidin-5-yl)-3-methyl-2-oxa-8-azaspiro[4.5]decan-4-amine] | > 7.00 | 7.80 | 7.38 | 7.37 | > 7.00 | > 7.00

From US11498930B2 (BLUERAY THERAPEUTICS (SHANGHAI) CO., LTD., priority 2018, dated 2022)
